Experimental data published in US5434150A, “Condensed 5-membered heterocyclic compounds, processes for preparing them and pharmaceutical preparations containing these compounds” (Dr. Karl Thomae GmbH, priority 1991, dated 1995).

Experiments:
Human Thrombocytes = assay: Fibrinogen binding to human thrombocytes (fibrinogen binding test); conditions: 125I fibrinogen; 50% inhibition of fibrinogen binding; gel-filtered human platelets, ADP, 20 min ambient temperature; read-out: Fibrinogen binding test IC50
Method: 1. Fibrinogen Binding to Human Thrombocytes The blood obtained by puncturing an antecubital vein is anticoagulated with trisodium citrate (final concentration: 13 mM) and centrifuged for 10 minutes at 170× g. The supernatant platelet-rich plasma is poured onto a Sepharose 2B column (Pharmacia) and eluted with a solution of 90 mM common salt, 14 mM trisodium citrate, 5 mM glucose and 50 mM tris(hydroxymethyl)aminomethane, adjusted to pH 7.4. The gel-filtered platelets (GFP) appearing before the plasma proteins are used for the binding experiments. 50 μl of a 60 mM calcium chloride solution, 50 μl of a 0.6 mM adenosine diphosphate solution, 100 μl of substance solution or solvent and 50 μl of fibrinogen solution (containing 3 μg of ^125 fibrinogen) are added to 750 μl of GFP and incubated for 20 minutes at ambient temperature. The non-specific binding is determined in the presence of 3 mg/ml of cold fibrinogen. 900 μl of the incubated material are carefully pipetted onto 250 μl of silicon oil (AP 38: AR 20, 1:2 v/v, Wacker Chemie) in Eppendorf tubes and centrifuged for 2 minutes at 10,000× g. The aqueous supernatant and some of the oil are drawn off, the tips of the tubes are cut off together with the platelet pellet and the quantity of bound fibrinogen is determined in a gamma counter. The concentration of substance which brings about a 50% inhibition in fibrinogen binding is determined from a series of concentrations and is given as the IC50 value. | *^125 I fibrogen was replaced by […] |e.

mice = assay: Tolerance after intravenous administration to mice; format: in vivo; conditions: 30 mg/kg intravenous, three mice
[1] = tested on: platelet aggregation (platelet-rich plasma); assay: Antithrombotic activity: inhibition of collagen-induced platelet aggregation in platelet-rich plasma (Born and Cross); format: cell-based, human (healthy volunteers); conditions: 50% change in optical density, human platelet-rich plasma, 10 min preincubation
Method: 2. Antithrombotic Activity Method The thrombocyte aggregation is measured using the Born and Cross method (J. Physiol. 170:397 (1964)) in platelet-rich plasma taken from healthy volunteers. To inhibit coagulation the blood is mixed with 3.14% sodium citrate in a ratio by volume of 1:10. Collagen-induced aggregation The pattern of the decrease in optical density of the platelet suspension is photometrically measured and recorded after the addition of aggregation-triggering substance. The rate of aggregation is concluded from the angle of inclination of the density curve. The point on the curve where there is maximum light transmittance is used to calculate the optical density. The amount of collagen used is as small as possible but sufficient to produce an irreversible reaction curve. Standard commercial collagen produced by Hormonchemie of Munich is used. Before the addition of the collagen the plasma is incubated for 10 minutes with the substance at […]. From the measurements obtained an EC50 is determined graphically, indicating a 50% change in the optical density in terms of the inhibition of aggregation.

Compound | IC50 (Human Thrombocytes) | deaths after intravenous administration (mice) | EC50 [1]
Cn1c(-c2ccc(C(=N)N)cc2)nc2cc(C(=O)NCCC(=O)O)ccc21 [Example 1(3), 2-(4-amidino-phenyl)-5-[(2-carboxy-ethyl)-aminocarbonyl]-1-methyl-benzimidazole] | 37 nM | no animals died | 70 nM
NCCCn1c(-c2ccc(CN)cc2)nc2cc(C(=O)NCCC(=O)O)ccc21 [Example 17, 2-(4-Aminomethyl-phenyl)-1-(3-amino-propyl)-5-[(2-carboxy-ethyl)-aminocarbonyl]-benzimidazole-hydrogen acetate] | 1000 nM | – | 3800 nM
